# In article PMC9867837 (Cancer letters, 2022):
# Read-outs that look alike come from different tables or passages of the source.
# How the values were obtained:
# [1] = test system: MDA-MB-231 tumor xenografts; experiment: Subcutaneous MDA-MB-231 xenografts in athymic nude mice; assay type: in vivo
# Protocol: Mice were housed in specific pathogen-free conditions in the animal facility. All animal experiments were conducted in accordance with the recommendations in the Guide for the Care and Use of Laboratory Animals on a protocol approved by the Institutional Animal Care and Use Committee (IACUC). Subcutaneous xenograft studies were performed as previously reported. Five-week-old female athymic nude mice were purchased from Envigo (Indianapolis, IN) or Charles River (Wilmington, MA) and maintained in the institutional animal facilities approved by the American Association for Accreditation of Laboratory Animal Care. […] Tumor sizes were monitored every 3–4 days, measured with calipers, and converted to tumor volume, V, according to the formula V = 0.52 × a^2 × b, where a, smallest superficial diameter, and b, largest superficial diameter. For each treatment group, the tumor volumes for each set of measurements were statistically analyzed relative to the control (DMSO-treated; 70% DMSO with sterile PBS) group.
# Constitutively-active Stat3 promotes primary tumor development and the progression to therapy resistance. We proceeded to evaluate the in vivo antitumor efficacy against tumor growth in both human xenograft and mouse syngeneic models of TNBC. In four separate studies, we tested the efficacy of H182, H278 (HCl salt of H182), and H120. For these xenografts, the human breast cancer, MDA-MB-231 cells were injected subcutaneously into athymic nude mice. When tumors were palpable (80–120 mm^3), mice were grouped so that the mean tumor sizes were identical between groups and treated as follows: A) intraperitoneal (IP) injections of H182 at 10 mg/kg every other day for 33 days; B) oral gavage of H182 every day at 5 mg/kg for 20 days, and then increased to 20 mg/kg for additional 12 days; and C) oral gavage of H120 at 20 mg/kg, daily for 14 days, and then increased to 30 mg/kg, daily for additional 14 days.
# [2] = test system: pS727Stat3, pYStat1, pY416Src, pY1068EGFR, pShc, pErk1/2MAPK, pS473Akt, and pJAK2; experiment: Western blotting for other signaling proteins in TNBC cells; assay type: cell-based, human; details: MDA-MB-231 and MDA-MB-468, 0.5–3 μM H182 for 2 h
# Protocol: (§1) These studies were performed as previously described. Details are presented in Supplementary Information, “Methods”.
# We sought to assess any non-specific effects of the azetidine compounds. […] Samples of equal total protein were subjected to SDS-PAGE and Western blotting analysis. […] The total protein levels were unchanged, and the tubulin, β-actin, and GAPDH levels show equal protein loading.
# (§2) These studies were performed as previously described [1 -3] . Briefly, snap-frozen tumor tissues or cultured cells treated or not were harvested and whole-cell or tissue lysates were prepared in radioimmunoprecipitation assay (RIPA) buffer. Samples of equal total protein were subjected to SDS - PAGE and immunoblotting analysis. Primary antibodies used were anti- Stat3, pY705-Stat3, pS727Stat3, […]
# (§3) Akt, pT202/Y204Erk1/2 (p44/42), Erk1/2, PARP , caspase 3, c-Myc, survivin, VEGF, β-actin, α/β-tubulin, and GAPDH. For the studies of the effects of cell density and confluence on pY705Stat3, cells were seeded […] in culture dishes. The next day, cells were untreated (DMSO control, […]
# (§4) concentration of H182 for 6 h and then treated with 0- 100 nM docetaxel or 0-20 µM cisplatin for a total of 72 h. Viable cell numbers were assessed by a CyQuant cell proliferation kit according to the manufacturer’s instructions (Thermo/Life Technologies Corp, Carlsbad, CA). […]
# hERG = target: T1, hERG (Homo sapiens, UniProt Q12809); experiment: hERG Qpatch assay; assay type: cell-based
# T1 construct: Eurofins-CEREP (contract research organisation that ran the assay)
# T1 sequence (Q12809 whole entry): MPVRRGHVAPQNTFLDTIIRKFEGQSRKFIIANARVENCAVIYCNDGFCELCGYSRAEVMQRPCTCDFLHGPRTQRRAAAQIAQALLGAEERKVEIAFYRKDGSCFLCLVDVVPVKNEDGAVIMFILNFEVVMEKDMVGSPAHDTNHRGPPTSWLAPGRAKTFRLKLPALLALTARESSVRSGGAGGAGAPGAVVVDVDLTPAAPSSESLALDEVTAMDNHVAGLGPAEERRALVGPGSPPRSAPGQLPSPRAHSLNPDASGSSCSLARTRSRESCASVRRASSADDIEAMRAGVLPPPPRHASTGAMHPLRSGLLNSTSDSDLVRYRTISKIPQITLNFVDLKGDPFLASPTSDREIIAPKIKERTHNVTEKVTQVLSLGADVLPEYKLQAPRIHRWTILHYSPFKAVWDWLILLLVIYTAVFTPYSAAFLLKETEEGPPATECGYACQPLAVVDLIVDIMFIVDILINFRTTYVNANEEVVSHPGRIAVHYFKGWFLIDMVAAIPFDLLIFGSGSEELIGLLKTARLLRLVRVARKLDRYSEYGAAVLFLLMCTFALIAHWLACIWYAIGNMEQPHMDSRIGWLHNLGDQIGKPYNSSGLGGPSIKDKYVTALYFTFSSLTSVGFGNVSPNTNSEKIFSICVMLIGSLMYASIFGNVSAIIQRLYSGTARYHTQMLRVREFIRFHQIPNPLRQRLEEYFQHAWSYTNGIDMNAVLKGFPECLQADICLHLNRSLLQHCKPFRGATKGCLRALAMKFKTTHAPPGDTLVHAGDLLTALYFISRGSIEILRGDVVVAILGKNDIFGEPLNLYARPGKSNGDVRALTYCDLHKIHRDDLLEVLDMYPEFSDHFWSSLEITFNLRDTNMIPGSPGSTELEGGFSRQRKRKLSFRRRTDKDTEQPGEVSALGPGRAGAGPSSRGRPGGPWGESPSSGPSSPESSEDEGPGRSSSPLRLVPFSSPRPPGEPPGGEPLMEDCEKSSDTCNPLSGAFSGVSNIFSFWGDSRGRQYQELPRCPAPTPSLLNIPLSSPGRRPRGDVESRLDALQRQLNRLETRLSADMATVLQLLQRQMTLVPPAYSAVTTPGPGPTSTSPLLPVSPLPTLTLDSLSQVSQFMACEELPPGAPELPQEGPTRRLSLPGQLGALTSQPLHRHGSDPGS
# CYP2D6 = target: T2, CYP2D6 (Homo sapiens, UniProt P10635); experiment: CYP inhibition, CYP2D6; assay type: in vitro ADME; details: read-out: CYP Inhibition CYP2D6 % Inh at 10 μM
# T2 construct: Eurofins-CEREP (contract research organisation that ran the assay)
# T2 sequence (P10635 whole entry, species assumed): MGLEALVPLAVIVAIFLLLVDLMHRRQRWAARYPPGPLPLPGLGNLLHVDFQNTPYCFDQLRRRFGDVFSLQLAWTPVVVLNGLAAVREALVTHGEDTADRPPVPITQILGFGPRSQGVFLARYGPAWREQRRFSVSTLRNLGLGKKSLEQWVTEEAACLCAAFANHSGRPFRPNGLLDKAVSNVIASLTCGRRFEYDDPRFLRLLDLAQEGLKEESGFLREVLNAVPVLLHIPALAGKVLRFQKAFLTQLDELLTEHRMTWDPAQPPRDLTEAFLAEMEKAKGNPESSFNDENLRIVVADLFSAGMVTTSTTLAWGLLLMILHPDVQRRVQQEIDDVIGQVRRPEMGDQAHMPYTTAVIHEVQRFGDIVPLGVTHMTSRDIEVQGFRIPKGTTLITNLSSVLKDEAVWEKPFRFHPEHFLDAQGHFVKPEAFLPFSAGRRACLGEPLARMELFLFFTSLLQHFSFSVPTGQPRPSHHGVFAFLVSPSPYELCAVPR
# Protocol: (§5) The in vivo activity of a compound is influenced by its overall bioavailability, which is also driven by parameters, such as solubility, permeability, and metabolism. […] These values are all above the industry cut-off of 60 μg/ml. […] It has CLint in human hepatocytes of 16 μL/min/10^6 cells, which falls into moderate stability range [43].
# [3] = Human hepatocyte stability; assay type: in vitro ADME
# Protocol: as §5
# [4] = test system: c-Myc, survivin and vascular endothelial growth factor (VEGF); experiment: Immunoblotting for Stat3 downstream genes in cells; assay type: cell-based, human; details: MDA-MB-231, doses that inhibit Stat3 activity
# Protocol: as §1
# Aberrantly-active Stat3 promotes tumor cell growth and proliferation, survival, migration, invasion, and metastasis.
# as §2, §3
# 0.1%) or treated at the same time with 1 or 2 µM H182, allowed to incubate for the indicated time and then harvested for whole-cell lysate preparation and SDS -PAGE / immunoblotting analy sis. […]
# as §4
# CYP3A = CYP3A (Homo sapiens, UniProt P08684); experiment: CYP inhibition, CYP3A; assay type: in vitro ADME
# Chain of CYP3A (P08684 2-503): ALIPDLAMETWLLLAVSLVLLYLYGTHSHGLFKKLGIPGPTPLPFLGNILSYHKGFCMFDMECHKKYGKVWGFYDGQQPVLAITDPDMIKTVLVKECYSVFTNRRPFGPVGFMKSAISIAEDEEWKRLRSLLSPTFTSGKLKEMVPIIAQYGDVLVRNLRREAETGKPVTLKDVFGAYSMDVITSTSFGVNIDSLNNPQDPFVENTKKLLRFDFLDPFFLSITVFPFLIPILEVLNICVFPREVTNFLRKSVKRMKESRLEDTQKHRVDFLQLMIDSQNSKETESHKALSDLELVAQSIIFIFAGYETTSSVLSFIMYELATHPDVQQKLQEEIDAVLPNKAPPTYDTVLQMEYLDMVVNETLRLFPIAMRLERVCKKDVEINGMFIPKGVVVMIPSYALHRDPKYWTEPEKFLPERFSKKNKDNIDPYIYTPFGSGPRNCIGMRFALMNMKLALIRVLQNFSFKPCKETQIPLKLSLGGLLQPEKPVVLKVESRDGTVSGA
# Protocol: as §5
structure (smiles),measurement,setting,value
O=C([C@H]1CCN1S(=O)(=O)c1c(F)c(F)c(F)c(F)c1F)N(Cc1ccc(C2CCCCC2)cn1)c1ccc2c(=O)[nH]ncc2c1 [Compound H182],"Tumor growth, MDA-MB-231 xenografts",[1]; H182 IP 10 mg/kg every other day for 33 days,significant tumor growth inhibition
same,"Tumor growth, MDA-MB-231 xenografts","[1]; H182 oral gavage daily 5 mg/kg for 20 days, then 20 mg/kg for 12 days",significant tumor growth inhibition
same,Body weights and obvious signs of toxicity,[1]; the three xenograft studies,No notable changes
same,"Effect on constitutive or EGF-induced pS727Stat3, pYStat1, pY416Src, pY1068EGFR, pShc, pErk1/2MAPK, pS473Akt, and pJAK2",[2],no inhibitory effect
same,IC50,hERG,> 10 µM
same,inhibition at 10 µM,CYP2D6,9%
same,Metabolic Stability Human Hepatocytes CLint,[3],14.6 μL/min/10^6 cells
same,half-life,"[3]; hepatocytes, read-out: Human Hepatocytes t1/2",1.13 h
same,hepatocyte CLint,"[3]; hepatocytes, read-out: Metabolic Stability Human Hepatocytes CLint",16 µL/min/1e6 cells
same,"Expression of c-Myc, survivin and VEGF in cells",[4],rapidly suppressed
same,IC50,"CYP3A; probe midazolam, midazolam site, read-out: CYP Inhibition CYP3A (Midazolam) IC50",6.9 µM
same,IC50,"CYP3A; probe testosterone, testosterone site, read-out: CYP Inhibition CYP3A (Testosterone) IC50",1.2 µM
